From ChEMBL document CHEMBL1155237, “Selective inhibitors of the mutant B-Raf pathway: discovery of a potent and orally bioavailable aminoisoquinoline” (J Med Chem, 2009)

What was measured:
[1] = target: Dual specificity protein kinase CLK4 (Homo sapiens) (UniProt Q9HAZ1); experiment: Inhibition of CLK4 assessed as enzyme activity at 1 uM relative to untreated control; set-up: scale not given: the % may be the effect or the level left
[2] = target: Phosphatidylinositol 5-phosphate 4-kinase type-2 beta (Homo sapiens) (UniProt P78356); experiment: Inhibition of PIP5K2B assessed as enzyme activity at 1 uM relative to untreated control; set-up: scale not given: the % may be the effect or the level left
Phosphatidylinositol 5-phosphate 4-kinase type-2 beta (Homo sapiens), sequence (P78356 whole entry): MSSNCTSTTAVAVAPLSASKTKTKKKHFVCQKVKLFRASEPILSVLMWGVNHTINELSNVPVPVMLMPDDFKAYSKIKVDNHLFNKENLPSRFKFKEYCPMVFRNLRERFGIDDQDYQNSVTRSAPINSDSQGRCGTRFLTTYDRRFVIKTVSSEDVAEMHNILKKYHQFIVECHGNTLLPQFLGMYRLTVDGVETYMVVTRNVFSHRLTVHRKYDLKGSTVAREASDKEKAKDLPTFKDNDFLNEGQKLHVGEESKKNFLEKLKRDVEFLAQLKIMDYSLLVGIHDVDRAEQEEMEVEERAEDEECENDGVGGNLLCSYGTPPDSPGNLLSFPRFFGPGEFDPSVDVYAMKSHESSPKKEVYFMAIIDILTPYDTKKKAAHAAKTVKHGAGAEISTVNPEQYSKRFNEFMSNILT

[3] = target: Serine/threonine-protein kinase TNNI3K (Homo sapiens) (UniProt Q59H18); experiment: Inhibition of TNNI3K assessed as enzyme activity at 1 uM relative to untreated control; set-up: scale not given: the % may be the effect or the level left
[4] = target: Ephrin type-A receptor 3 (Homo sapiens) (UniProt P29320); experiment: Inhibition of EPHA3 assessed as enzyme activity at 1 uM relative to untreated control; set-up: scale not given: the % may be the effect or the level left
A-375 = experiment: Antitumor activity against human A375 SQ2 cells xenografted in CD1 mouse assessed as inhibition of tumor growth at 2 mg/kg, po qd for 14 days; assay type: functional; conditions: A375-SQ2, 336 h
[5] = test system: Tyrosine-protein kinase ABL1 (Homo sapiens), P00519 [E255K]; experiment: Inhibition of ABL1 E255K mutant assessed as enzyme activity at 1 uM relative to untreated control; set-up: scale not given: the % may be the effect or the level left
[6] = target: Tyrosine-protein kinase receptor TYRO3 (Homo sapiens) (UniProt Q06418); experiment: Inhibition of TYRO3 assessed as enzyme activity at 1 uM relative to untreated control; set-up: scale not given: the % may be the effect or the level left
[7] = target: Tyrosine-protein kinase SYK (Homo sapiens) (UniProt P43405); experiment: Inhibition of SYK assessed as enzyme activity at 1 uM relative to untreated control; set-up: scale not given: the % may be the effect or the level left
[8] = target: Cyclin-dependent kinase 19 (Homo sapiens) (UniProt Q9BWU1); experiment: Inhibition of CDK11 assessed as enzyme activity at 1 uM relative to untreated control; set-up: scale not given: the % may be the effect or the level left
[9] = target: Ribosomal protein S6 kinase alpha-2 (Homo sapiens) (UniProt Q15349); experiment: Inhibition of RPS6KA2 kinase domain 1 assessed as enzyme activity at 1 uM relative to untreated control; set-up: scale not given: the % may be the effect or the level left
Ribosomal protein S6 kinase alpha-2 (Homo sapiens), sequence (Q15349 whole entry, the tested form may be a part): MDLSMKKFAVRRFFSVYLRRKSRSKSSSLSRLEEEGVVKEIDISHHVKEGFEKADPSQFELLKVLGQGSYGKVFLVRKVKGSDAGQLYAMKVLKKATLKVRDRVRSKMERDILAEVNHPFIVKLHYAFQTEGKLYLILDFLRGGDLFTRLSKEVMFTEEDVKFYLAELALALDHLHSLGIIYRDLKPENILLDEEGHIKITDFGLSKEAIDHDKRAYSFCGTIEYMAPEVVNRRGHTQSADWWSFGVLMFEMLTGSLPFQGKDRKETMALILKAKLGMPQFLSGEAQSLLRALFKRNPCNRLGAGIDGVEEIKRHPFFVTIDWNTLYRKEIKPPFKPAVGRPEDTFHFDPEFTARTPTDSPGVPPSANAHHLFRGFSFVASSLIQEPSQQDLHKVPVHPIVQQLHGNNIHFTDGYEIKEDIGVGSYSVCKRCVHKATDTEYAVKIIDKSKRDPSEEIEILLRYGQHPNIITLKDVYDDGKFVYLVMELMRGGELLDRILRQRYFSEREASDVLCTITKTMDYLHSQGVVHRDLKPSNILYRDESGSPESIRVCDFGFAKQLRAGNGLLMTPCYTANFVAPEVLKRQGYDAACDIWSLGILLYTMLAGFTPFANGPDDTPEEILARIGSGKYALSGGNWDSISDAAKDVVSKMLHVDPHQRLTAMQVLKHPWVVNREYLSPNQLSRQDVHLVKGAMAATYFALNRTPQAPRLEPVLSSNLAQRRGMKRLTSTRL

[10] = target: TGF-beta receptor type-2 (Homo sapiens) (UniProt P37173); experiment: Inhibition of TGFBR2 assessed as enzyme activity at 1 uM relative to untreated control; set-up: scale not given: the % may be the effect or the level left
[11] = target: Receptor tyrosine-protein kinase erbB-2 (Homo sapiens) (UniProt P04626); experiment: Inhibition of ERBB2 assessed as enzyme activity at 1 uM relative to untreated control; set-up: scale not given: the % may be the effect or the level left
Receptor tyrosine-protein kinase erbB-2 (Homo sapiens), sequence (P04626 whole entry): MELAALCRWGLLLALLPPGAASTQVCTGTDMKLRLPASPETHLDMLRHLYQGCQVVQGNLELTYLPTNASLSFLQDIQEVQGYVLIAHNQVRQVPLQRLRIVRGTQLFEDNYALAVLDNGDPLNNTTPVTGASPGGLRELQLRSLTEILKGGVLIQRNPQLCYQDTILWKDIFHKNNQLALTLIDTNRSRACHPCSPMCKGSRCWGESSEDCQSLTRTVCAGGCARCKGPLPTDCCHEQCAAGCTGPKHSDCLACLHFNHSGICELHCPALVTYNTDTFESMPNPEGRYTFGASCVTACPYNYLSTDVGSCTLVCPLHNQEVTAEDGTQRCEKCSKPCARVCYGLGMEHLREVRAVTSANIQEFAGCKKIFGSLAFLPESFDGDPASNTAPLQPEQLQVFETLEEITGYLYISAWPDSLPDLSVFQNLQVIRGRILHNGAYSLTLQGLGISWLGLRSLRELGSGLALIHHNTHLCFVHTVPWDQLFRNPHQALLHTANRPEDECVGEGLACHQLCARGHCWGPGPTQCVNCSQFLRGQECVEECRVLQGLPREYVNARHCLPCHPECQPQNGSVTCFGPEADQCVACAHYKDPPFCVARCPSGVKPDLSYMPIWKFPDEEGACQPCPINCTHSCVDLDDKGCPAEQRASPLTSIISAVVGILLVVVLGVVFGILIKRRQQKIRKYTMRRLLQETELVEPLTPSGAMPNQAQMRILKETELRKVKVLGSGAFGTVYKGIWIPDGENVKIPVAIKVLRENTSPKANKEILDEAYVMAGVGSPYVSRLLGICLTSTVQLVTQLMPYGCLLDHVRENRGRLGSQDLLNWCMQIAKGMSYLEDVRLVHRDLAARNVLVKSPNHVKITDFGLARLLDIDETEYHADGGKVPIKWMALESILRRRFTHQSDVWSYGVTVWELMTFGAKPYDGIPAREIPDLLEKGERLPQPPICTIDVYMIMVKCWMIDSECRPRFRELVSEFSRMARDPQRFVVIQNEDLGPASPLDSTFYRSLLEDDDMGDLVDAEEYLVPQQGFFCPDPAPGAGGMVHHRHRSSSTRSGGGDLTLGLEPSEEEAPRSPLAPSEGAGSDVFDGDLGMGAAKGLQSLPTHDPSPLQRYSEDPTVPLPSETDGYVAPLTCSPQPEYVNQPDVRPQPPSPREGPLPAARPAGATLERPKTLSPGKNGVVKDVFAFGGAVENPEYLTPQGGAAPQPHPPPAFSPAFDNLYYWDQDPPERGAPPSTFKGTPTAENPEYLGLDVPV

[12] = target: Activin receptor type-1-like (Homo sapiens) (UniProt P37023); experiment: Inhibition of ACVRL1 assessed as enzyme activity at 1 uM relative to untreated control; set-up: scale not given: the % may be the effect or the level left
[13] = target: Mitogen-activated protein kinase kinase kinase kinase 1 (Homo sapiens) (UniProt Q92918); experiment: Inhibition of MAP4K1 assessed as enzyme activity at 1 uM relative to untreated control; set-up: scale not given: the % may be the effect or the level left
[14] = target: Ribosomal protein S6 kinase alpha-2 (Homo sapiens) (UniProt Q15349); experiment: Inhibition of RPS6KA2 kinase domain 2 assessed as enzyme activity at 1 uM relative to untreated control; set-up: scale not given: the % may be the effect or the level left
[15] = Clearance in CD1 mouse; assay type: ADME, organism-based; conditions: in vivo
[16] = target: Dual specificity protein kinase CLK1 (Homo sapiens) (UniProt P49759); experiment: Inhibition of CLK1 assessed as enzyme activity at 1 uM relative to untreated control; set-up: scale not given: the % may be the effect or the level left
Dual specificity protein kinase CLK1 (Homo sapiens), sequence (P49759 whole entry, looked up): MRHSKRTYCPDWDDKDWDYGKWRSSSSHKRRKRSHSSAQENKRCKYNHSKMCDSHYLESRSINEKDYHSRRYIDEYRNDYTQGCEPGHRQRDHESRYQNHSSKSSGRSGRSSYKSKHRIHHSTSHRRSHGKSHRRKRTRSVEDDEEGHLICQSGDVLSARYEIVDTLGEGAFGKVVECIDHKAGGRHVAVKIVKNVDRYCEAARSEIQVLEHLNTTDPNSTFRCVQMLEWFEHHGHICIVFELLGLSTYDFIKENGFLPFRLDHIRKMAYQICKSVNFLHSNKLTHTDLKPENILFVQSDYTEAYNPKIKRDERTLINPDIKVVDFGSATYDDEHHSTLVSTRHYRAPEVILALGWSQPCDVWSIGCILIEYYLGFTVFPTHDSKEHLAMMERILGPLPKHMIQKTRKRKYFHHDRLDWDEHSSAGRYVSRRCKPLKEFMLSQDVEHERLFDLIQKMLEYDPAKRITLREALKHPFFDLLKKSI

[17] = target: Cyclin-dependent kinase 9 (Homo sapiens) (UniProt P50750); experiment: Inhibition of CDK9 assessed as enzyme activity at 1 uM relative to untreated control; set-up: scale not given: the % may be the effect or the level left
Cyclin-dependent kinase 9 (Homo sapiens), sequence (P50750 whole entry, the tested form may be a part): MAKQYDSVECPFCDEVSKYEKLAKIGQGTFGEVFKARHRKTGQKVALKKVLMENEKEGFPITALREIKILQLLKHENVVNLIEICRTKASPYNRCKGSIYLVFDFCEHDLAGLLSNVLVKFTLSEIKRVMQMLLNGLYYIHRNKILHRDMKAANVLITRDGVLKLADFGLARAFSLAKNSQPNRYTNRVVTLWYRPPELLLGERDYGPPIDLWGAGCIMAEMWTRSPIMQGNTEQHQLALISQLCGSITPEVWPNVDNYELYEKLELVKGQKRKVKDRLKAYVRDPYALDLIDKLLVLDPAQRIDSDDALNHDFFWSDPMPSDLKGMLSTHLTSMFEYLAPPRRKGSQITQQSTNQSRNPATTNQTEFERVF

[18] = target: Ribosomal protein S6 kinase alpha-6 (Homo sapiens) (UniProt Q9UK32); experiment: Inhibition of RPS6KA6 kinase domain 1 assessed as enzyme activity at 1 uM relative to untreated control; set-up: scale not given: the % may be the effect or the level left
[19] = target: Non-receptor tyrosine-protein kinase TNK1 (Homo sapiens) (UniProt Q13470); experiment: Inhibition of TNK1 assessed as enzyme activity at 1 uM relative to untreated control; set-up: scale not given: the % may be the effect or the level left
[20] = target: Serine/threonine-protein kinase 36 (Homo sapiens) (UniProt Q9NRP7); experiment: Inhibition of STK36 assessed as enzyme activity at 1 uM relative to untreated control; set-up: scale not given: the % may be the effect or the level left
Serine/threonine-protein kinase 36 (Homo sapiens), sequence (Q9NRP7 whole entry, canonical isoform): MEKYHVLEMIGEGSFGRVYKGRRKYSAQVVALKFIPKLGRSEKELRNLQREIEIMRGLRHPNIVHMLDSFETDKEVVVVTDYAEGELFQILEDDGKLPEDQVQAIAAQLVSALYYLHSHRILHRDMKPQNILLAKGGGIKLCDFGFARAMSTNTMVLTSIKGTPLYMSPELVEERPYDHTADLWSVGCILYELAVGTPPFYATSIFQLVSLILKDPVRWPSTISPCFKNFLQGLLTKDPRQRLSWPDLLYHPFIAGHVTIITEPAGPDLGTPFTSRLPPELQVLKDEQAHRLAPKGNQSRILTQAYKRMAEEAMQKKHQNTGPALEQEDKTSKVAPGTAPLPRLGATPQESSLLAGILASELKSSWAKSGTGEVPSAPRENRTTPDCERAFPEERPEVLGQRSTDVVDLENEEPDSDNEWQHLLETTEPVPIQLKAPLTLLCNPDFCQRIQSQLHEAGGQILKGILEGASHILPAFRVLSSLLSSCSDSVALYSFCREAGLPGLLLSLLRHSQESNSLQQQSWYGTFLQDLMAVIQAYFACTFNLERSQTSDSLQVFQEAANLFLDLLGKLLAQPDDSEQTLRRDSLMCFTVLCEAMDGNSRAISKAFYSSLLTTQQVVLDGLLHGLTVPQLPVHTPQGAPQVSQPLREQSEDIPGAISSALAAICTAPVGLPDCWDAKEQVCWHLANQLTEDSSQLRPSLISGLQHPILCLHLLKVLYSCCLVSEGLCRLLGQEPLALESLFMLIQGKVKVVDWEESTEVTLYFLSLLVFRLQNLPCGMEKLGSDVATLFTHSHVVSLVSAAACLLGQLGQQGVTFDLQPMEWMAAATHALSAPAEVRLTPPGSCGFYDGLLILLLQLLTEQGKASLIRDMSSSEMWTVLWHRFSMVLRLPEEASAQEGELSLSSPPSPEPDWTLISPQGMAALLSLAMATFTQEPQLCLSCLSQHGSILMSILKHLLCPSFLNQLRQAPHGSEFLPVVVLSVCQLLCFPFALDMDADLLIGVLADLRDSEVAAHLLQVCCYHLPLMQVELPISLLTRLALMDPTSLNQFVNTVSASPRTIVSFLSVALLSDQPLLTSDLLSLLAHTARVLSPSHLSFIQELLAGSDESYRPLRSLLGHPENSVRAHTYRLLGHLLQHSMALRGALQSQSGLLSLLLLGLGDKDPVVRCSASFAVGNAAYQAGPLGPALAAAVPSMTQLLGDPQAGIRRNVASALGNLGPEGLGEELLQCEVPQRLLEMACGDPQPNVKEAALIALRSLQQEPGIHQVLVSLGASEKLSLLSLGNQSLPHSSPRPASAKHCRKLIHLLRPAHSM

[21] = target: Phosphatidylinositol 4,5-bisphosphate 3-kinase catalytic subunit alpha isoform (Homo sapiens) (UniProt P42336); experiment: Inhibition of PIK3CA assessed as enzyme activity at 1 uM relative to untreated control; set-up: scale not given: the % may be the effect or the level left
[22] = target: Tyrosine-protein kinase JAK3 (Homo sapiens) (UniProt P52333); experiment: Inhibition of JAK3 kinase domain 2 assessed as enzyme activity at 1 uM relative to untreated control; set-up: scale not given: the % may be the effect or the level left
[23] = target: Receptor-interacting serine/threonine-protein kinase 2 (Homo sapiens) (UniProt O43353); experiment: Inhibition of RIPK2 assessed as enzyme activity at 1 uM relative to untreated control; set-up: scale not given: the % may be the effect or the level left
[24] = target: Dual specificity mitogen-activated protein kinase kinase 1 (Homo sapiens) (UniProt Q02750); experiment: Inhibition of MEK1 assessed as enzyme activity at 1 uM relative to untreated control; set-up: scale not given: the % may be the effect or the level left
[25] = test system: Receptor-type tyrosine-protein kinase FLT3 (Homo sapiens), P36888 [D835Y]; experiment: Inhibition of FLT3 D835Y mutant assessed as enzyme activity at 1 uM relative to untreated control; set-up: scale not given: the % may be the effect or the level left
[26] = target: Casein kinase I isoform gamma-2 (Homo sapiens) (UniProt P78368); experiment: Inhibition of CSNK1G2 assessed as enzyme activity at 1 uM relative to untreated control; set-up: scale not given: the % may be the effect or the level left
[27] = target: Non-receptor tyrosine-protein kinase TYK2 (Homo sapiens) (UniProt P29597); experiment: Inhibition of TYK2 kinase domain 1 assessed as enzyme activity at 1 uM relative to untreated control; set-up: scale not given: the % may be the effect or the level left
[28] = target: Platelet-derived growth factor receptor beta (Homo sapiens) (UniProt P09619); experiment: Inhibition of PDGFRB assessed as enzyme activity at 1 uM relative to untreated control; set-up: scale not given: the % may be the effect or the level left
[29] = target: Serine/threonine-protein kinase RIO3 (Homo sapiens) (UniProt O14730); experiment: Inhibition of RIOK3 assessed as enzyme activity at 1 uM relative to untreated control; set-up: scale not given: the % may be the effect or the level left
[30] = target: Myosin light chain kinase, smooth muscle (Homo sapiens) (UniProt Q15746); experiment: Inhibition of MLCK assessed as enzyme activity at 1 uM relative to untreated control; set-up: scale not given: the % may be the effect or the level left
[31] = target: Tyrosine-protein kinase HCK (Homo sapiens) (UniProt P08631); experiment: Inhibition of HCK assessed as enzyme activity at 1 uM relative to untreated control; set-up: scale not given: the % may be the effect or the level left
[32] = target: Serine/threonine-protein kinase N1 (Homo sapiens) (UniProt Q16512); experiment: Inhibition of PKN1 assessed as enzyme activity at 1 uM relative to untreated control; set-up: scale not given: the % may be the effect or the level left
[33] = target: SRSF protein kinase 3 (Homo sapiens) (UniProt Q9UPE1); experiment: Inhibition of SRPK3 assessed as enzyme activity at 1 uM relative to untreated control; set-up: scale not given: the % may be the effect or the level left
[34] = target: Serine/threonine-protein kinase ULK3 (Homo sapiens) (UniProt Q6PHR2); experiment: Inhibition of ULK3 assessed as enzyme activity at 1 uM relative to untreated control; set-up: scale not given: the % may be the effect or the level left
Serine/threonine-protein kinase ULK3 (Homo sapiens), sequence (Q6PHR2 whole entry, the tested form may be a part): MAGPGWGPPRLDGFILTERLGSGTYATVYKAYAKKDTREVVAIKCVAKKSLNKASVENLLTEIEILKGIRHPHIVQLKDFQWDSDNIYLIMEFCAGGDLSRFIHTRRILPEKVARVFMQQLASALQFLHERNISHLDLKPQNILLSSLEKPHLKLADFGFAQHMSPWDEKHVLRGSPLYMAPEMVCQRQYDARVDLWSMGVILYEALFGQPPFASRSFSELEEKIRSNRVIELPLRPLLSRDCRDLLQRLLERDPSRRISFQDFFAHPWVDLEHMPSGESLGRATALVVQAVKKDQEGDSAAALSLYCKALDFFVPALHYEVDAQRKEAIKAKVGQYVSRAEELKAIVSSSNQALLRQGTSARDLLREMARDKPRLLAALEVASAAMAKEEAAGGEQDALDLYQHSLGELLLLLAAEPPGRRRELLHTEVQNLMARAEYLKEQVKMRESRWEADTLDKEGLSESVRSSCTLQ

[35] = test system: eIF-2-alpha kinase GCN2 (Homo sapiens), Q9P2K8 [S808G]; experiment: Inhibition of GCN2 kinase domain-2 S808G mutant assessed as enzyme activity at 1 uM relative to untreated control; set-up: scale not given: the % may be the effect or the level left
[36] = target: MAP kinase-activated protein kinase 2 (Homo sapiens) (UniProt P49137); experiment: Inhibition of MAPKAPK2 assessed as enzyme activity at 1 uM relative to untreated control; set-up: scale not given: the % may be the effect or the level left

## Cc1ccc2c(Nc3ccc(Cl)cc3)nccc2c1Nc1ncccc1-c1ncnc2[nH]cnc12.Cl.Cl.Cl
[1]
  Activity: 100%
[2]
  Activity: 57%
[3]
  Activity: 21%
[4]
  Activity: 74%
A-375
  inhibition in vivo at 2 mg/kg: 90%
[5]
  Activity: 80%
[6]
  Activity: 84%
[7]
  Activity: 86%
[8]
  Activity: 100%
[9]
  Activity: 100%
[10]
  Activity: 100%
[11]
  Activity: 97%
[12]
  Activity: 92%
[13]
  Activity: 100%
[14]
  Activity: 81%
[15]
  clearance: 3.17 mL/min
[16]
  Activity: 100%
[17]
  Activity: 97%
[18]
  Activity: 92%
[19]
  Activity: 100%
[20]
  Activity: 92%
[21]
  Activity: 100%
[22]
  Activity: 100%
[23]
  Activity: 100%
[24]
  Activity: 100%
[25]
  Activity: 92%
[26]
  Activity: 100%
[27]
  Activity: 96%
[28]
  Activity: 78%
[29]
  Activity: 77%
[30]
  Activity: 99%
[31]
  Activity: 53%
[32]
  Activity: 100%
[33]
  Activity: 100%
[34]
  Activity: 100%
[35]
  Activity: 100%
[36]
  Activity: 100%
